Experimental findings from paper PMC6445550 (Analytical biochemistry, 2014) are described below.

The structures appear in SMILES notation.

The target in this assay is T1, Erf2 (Saccharomyces cerevisiae, UniProt Q06551).
T1 sequence (Q06551 1-359): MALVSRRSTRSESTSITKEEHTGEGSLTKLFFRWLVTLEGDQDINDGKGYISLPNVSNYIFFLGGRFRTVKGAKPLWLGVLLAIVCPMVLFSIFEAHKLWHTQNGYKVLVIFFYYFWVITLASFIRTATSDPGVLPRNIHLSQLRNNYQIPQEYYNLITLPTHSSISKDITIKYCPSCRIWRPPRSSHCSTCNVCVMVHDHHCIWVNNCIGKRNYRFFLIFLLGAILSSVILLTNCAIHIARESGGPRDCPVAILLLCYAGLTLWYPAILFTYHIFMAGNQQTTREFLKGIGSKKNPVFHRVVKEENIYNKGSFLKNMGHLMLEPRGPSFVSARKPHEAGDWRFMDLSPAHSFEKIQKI
Nature of the assay: fluorescence coupled autopalmitoylation assay with purified complex. The class given is biochemical.

In general, IC50 refers to the concentration at which inhibition is half-maximal. `CCCCCCCCCCCCCCC(Br)C(=O)O` (stereo not shown) [2-BP, 2-bromopalmitate]: the IC50 is around 100 µM.
